Type in all cases: biochemical
In assay [1] the target is recombinant human brain NO-synthases (bcNOS) (Homo sapiens, UniProt P29475). The experiment in a line: Inhibition assay with recombinant human brain NO-synthases (bcNOS). The note with it: substrate [3H]-arginine 4.4E-08 mol/l; bcNOS 0.022 IU/l. The source says:
(§1) The NOS-inhibitory action of the compounds of Formula I and their physiologically compatible salts can be determined with the variants that are mentioned below according to the methods by Bredt and Snyder in Proc. Natl. Acad. Sci. USA (1989) 86, 9030.
(§2) Inhibition assay with recombinant human brain NO-synthases (bcNOS). (Concentration: 0.022 IU/l). Measured parameters: % inhibition by test compound. Substrate: [3H]-arginine (concentration 4.4E-08 mol/l). Analogously to recombinant human endothelial NO-synthases (ecNOS) and recombinant human inducible NO-synthases (iNOS).

In assay [2] the target is recombinant human endothelial NO-synthases (ecNOS) (Homo sapiens, UniProt P29474). The experiment in a line: Inhibition assay with recombinant human endothelial NO-synthases (ecNOS). The note with it: substrate [3H]-arginine; analogously to bcNOS.
Source text: as §1, §2

The target in assay [3] is recombinant human inducible NO-synthases (iNOS) (Homo sapiens, UniProt P35228). Kind of assay: Inhibition assay with recombinant human inducible NO-synthases (iNOS). The note with it: substrate [3H]-arginine; analogously to bcNOS.
Source text: as §1, §2

For `Cc1cc2c(cc1C)OC(C)C(N)=N2` (stereo not drawn) [2,6,7-Trimethyl-3-amino-1,4-benzoxazine], the results for the IC50 in assay [1], in assay [2] and in assay [3] were 3 µM, over 10 µM and over 100 µM, respectively.
Take `CCCC1Oc2ccccc2N=C1N` (stereo not drawn) [2-n-Propyl-3-amino-1,4-benzoxazine]: the IC50 is 1.2 µM in assay [1], over 10 µM in assay [2] and over 100 µM in assay [3].
On the same counts, the results for `Cc1cccc2c1OC(C)C(N)=N2` (stereo not drawn) [2,8-Dimethyl-3-amino-1,4-benzoxazine] are 20 µM, over 100 µM and over 10 µM.

The term IC50 denotes the concentration at which inhibition is half-maximal.

Values taken from US6191127A, “Substituted heterocycles and their use in medicaments” (Schering Aktiengesellschaft, priority 1997, dated 2001).
